Paper PMC5059943, “Screening for peptides targeted to IL-7Rα for molecular imaging of rheumatoid arthritis synovium” (Arthritis Research & Therapy, 2016)
Where a SMILES comes first, the peptide text is derived from it. Bridges are numbered along the chain shown (N, C = ends). Where no end group is shown, it is not given here. The star is where a group is joined. Biotin = O=C1N[C@H]2[C@H](CS[C@H]2CCCCC(=O)*)N1; AEEA = NCCOCCOCC(=O)O

Columns and labels:
[1] = system: IL-7Rα expression of Jurkat cells; test: IL-7Rα expression of ADC vs. NS Jurkat cells; type: cell-based; conditions: 0.4 μM ADC, 4 days
Protocol: Jurkat cells were cultured in RPMI-1640 culture medium supplemented with 10 % newborn calf serum heat-inactivated and 1 % antibiotic-antimycotic (all from Invitrogen). The cells were stimulated with 0.4 μM of 5-Aza-2’-deoxycytidine (ADC, Sigma-Aldrich) [26]. The stimulated cells were immobilized on poly-L-lysine (Sigma-Aldrich) coated coverslips and fixed in a solution of 4 % formaldehyde (Sigma-Aldrich). […] Biotinylated peptides were detected with a goat anti-biotin antibody followed by fluorescein-conjugated rabbit anti-goat antibody (both from Vector Labconsult). Anti-IL-7Rα antibody was detected with Texas Red horse anti-mouse antibody (Vector Labconsult). […] The coverslips were mounted on slides with Vectashield mounting medium for fluorescence with 4',6-diamidino-2-phenylindole (DAPI) (Vector Labconsult) and observed on a DM2000 Leica microscope equipped with a DFC 425C camera (Leica Microsystems, Groot Bijgaarden, Belgium).
USPIO-P258 was co-localized with IL-7Rα expressed by Jurkat cells using an immunofluorescence protocol. […] The coverslips were finally mounted on slides with a mounting medium for fluorescence (Vector Labconsult). The RRFL was evaluated as described above.

IL-7Rα = molecular target: T1, IL-7Rα (Homo sapiens, UniProt P16871); test: ELISA of biotinylated peptides, K*d for IL-7Rα; type: binding; conditions: synthesized peptides, IL-7Rα vs. FN
T1 construct: screened against the extracellular domain of IL-7Rα (E^21–D^239); Fc (chimera partner); purchased R&D Systems
T1 sequence (P16871 21-239): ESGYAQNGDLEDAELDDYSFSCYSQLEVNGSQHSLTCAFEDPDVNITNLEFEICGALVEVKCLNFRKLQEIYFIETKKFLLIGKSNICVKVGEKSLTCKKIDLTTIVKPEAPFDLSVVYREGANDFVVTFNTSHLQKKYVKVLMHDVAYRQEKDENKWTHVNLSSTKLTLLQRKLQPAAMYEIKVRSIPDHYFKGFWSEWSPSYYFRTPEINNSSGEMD
Protocol: (§1) Serial dilutions of biotinylated peptides were incubated with IL-7Rα or FN immobilized on ELISA plates as described above and blocked with protein-free blocking buffer (PFBB) (Perbioscience, Erembodegem, Belgium). Peptides bound to the target were detected with a goat anti-biotin antibody, followed by a peroxidase-conjugated anti-goat antibody made in horse (both from Vector Labconsult, Brussels, Belgium). […] The protocol is largely described in Additional file 1: Methods. […]
(§2) screening of the phage clones.
(§3) After 30 min of incubation, the […]
(§4) antibody as described above.
(§5) 2. Characterization of the selected IL-7Rα-binding peptides […]
(§6) by an incubation of 2h at 37°C. The wells were subsequently incubated (1h, room temperature) […]
(§7) 20 and 0.5% BSA (1h, room temperature). After each incubation step, the wells were washed with PBST-0.05% using a microplate washer. The staining reaction was developed with 0.1 […]
(§8) For this purpose, a range of IL-

[2] = system: IL-7Rα expressed by ADC-stimulated Jurkat cells; test: Binding of peptides to ADC-stimulated Jurkat cells and co-localization with IL-7Rα by immunofluorescence; type: cell-based, human
Protocol: The cells were stimulated with 0.4 μM of 5-Aza-2’-deoxycytidine (ADC, Sigma-Aldrich). The stimulated cells were immobilized on poly-L-lysine (Sigma-Aldrich) coated coverslips and fixed in a solution of 4 % formaldehyde (Sigma-Aldrich). […] Biotinylated peptides were detected with a goat anti-biotin antibody followed by fluorescein-conjugated rabbit anti-goat antibody (both from Vector Labconsult). Anti-IL-7Rα antibody was detected with Texas Red horse anti-mouse antibody (Vector Labconsult). Control samples consisted of ADC-stimulated or non-stimulated (NS) Jurkat cells incubated with low-affinity peptide binders (e.g., P255, P259), a mouse IgG isotype control, or with secondary antibodies after excluding the primary antibodies. […] The protocol is additionally described in Additional file 1: Methods.
to the target was detected as described above.
(Sigma-Aldrich) diluted in PBS.
(Vector Labconsult) diluted in phosphate buffer. They were then co-incubated (1h, room
camera (Leica Microsystems, Groot Bijgaarden, Belgium).

[3] = system: STAT5 activation in ADC-stimulated Jurkat cells; test: Phospho-STAT5 detection on ADC-stimulated Jurkat cells by immunofluorescence; type: cell-based, human
Protocol: The solutions were replaced every day after culture tube centrifugation and supernatant removal.
The signal intensity (SI) was measured on microphotographs corresponding to three to six different microscopic fields using the ImageJ software (National Institutes of Health, USA), and the relative ratio of fluorescent labeling (RRFL) was then calculated using the subsequent equation: RRFL=SIsample/Numberofcells/SInegativecontrols/Numberofcells×100 […]
stained with 0.05% 3,3'-diaminobenzidine (DAB) completed with 0.02% H2O2 in PBS. Finally, they were counterstained with Hemalun and Luxol fast blue and mounted in a permanent […]
To validate the binding of biotinylated P258 to human knee sections, the endogenous biotin was first blocked with a blocking kit (Invitrogen). The histologic sections were then incubated (4°C, overnight) with 1 µM of P258, followed by an incubation (1h, room […]
goat antibody made in horse (Vector Labconsult). The staining and counterstaining were performed as described above for anti-IL-7Rα monoclonal antibody.
2.5. Phospho-STAT5 detection on Jurkat cells and modulation by peptide P725 Jurkat cells were cultured and stimulated with ADC as described above. The experiment was performed in triplicate on stimulated and non -stimulated cells that were distributed in several culture tubes at a concentration of 10^6 cells/mL and treated (37°C in a humidified 5% CO2 incubator) with different compounds diluted in the culture medium as follows: (A) cells […]
for 30 min with 1 mM of P725; (C) cells pre-incubated for 30 min with 10 µg/mL of mo use […]
In the case of samples B and C, the […]
replaced every day after centrifuging the culture tubes and removing the precedent solutions by […]
At the end of the treatment period, the cells were immobilized on poly -L-lysine coated coverslips and fixed with 4% formaldehyde as described above. After three times rinsing with PBS, the cells were treated with 100% methanol for 10 min at -20°C. […] The primary antibodies bound to the cells were then detected by a co- […]

[4] = system: lysosome content of Jurkat cells; test: Lysosome content of Jurkat cells (Lysotracker Red DND-99); type: cell-based
FN = molecular target: T2, FN (Homo sapiens, UniProt P02751); test: ELISA of biotinylated peptides, K*d for FN; type: binding; conditions: Fig. 1a, 2 h at 37 °C, read-out: Kd: FN, synthesized peptides
T2 construct: fragment 3 of recombinant human FN-1 (R&D Systems); purchased R&D Systems
T2 sequence (P02751 607-1265 limits assumed): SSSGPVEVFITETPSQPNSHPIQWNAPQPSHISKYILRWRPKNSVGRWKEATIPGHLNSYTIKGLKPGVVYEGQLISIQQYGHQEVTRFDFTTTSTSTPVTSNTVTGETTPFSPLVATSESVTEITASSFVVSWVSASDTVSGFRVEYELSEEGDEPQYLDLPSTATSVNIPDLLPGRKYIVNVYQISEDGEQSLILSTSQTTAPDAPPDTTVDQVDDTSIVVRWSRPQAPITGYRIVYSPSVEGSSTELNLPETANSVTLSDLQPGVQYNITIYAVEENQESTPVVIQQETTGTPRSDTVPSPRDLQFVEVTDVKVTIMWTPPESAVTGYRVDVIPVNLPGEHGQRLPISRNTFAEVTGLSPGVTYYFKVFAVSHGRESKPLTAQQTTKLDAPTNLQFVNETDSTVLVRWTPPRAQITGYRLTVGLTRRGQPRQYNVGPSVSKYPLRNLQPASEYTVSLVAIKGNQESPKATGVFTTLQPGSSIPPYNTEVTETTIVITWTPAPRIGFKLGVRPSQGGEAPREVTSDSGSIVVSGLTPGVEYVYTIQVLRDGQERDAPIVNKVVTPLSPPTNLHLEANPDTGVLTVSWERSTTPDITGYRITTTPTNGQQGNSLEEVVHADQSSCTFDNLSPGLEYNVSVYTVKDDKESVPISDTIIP
Protocol: as §1, §2, §3, §4, §5, §6, §7, §8

[5] = molecular target: IL-7Rα (high-affinity receptor) (Homo sapiens) (UniProt P16871); conditions: cited from earlier work
high-affinity IL-7R = conditions: read-out: Kd of IL-7 against high-affinity IL-7R, reported previously; cited from earlier work
Source text: (§9) In addition, two antibodies were used to detect IL-7, which means that additional rinsing steps may contribute to extensive prot ...

low-affinity IL-7R = conditions: read-out: Kd of IL-7 against low-affinity IL-7R, reported previously; cited from earlier work
Source text: as §9

IL-7Rα 21-239 [6] = molecular target: T3, IL-7Rα 21-239 (Homo sapiens, UniProt P16871); test: ELISA
T3 chain: T1 sequence (P16871 21-239)

IL-7Rα 21-239 [7] = molecular target: T3, IL-7Rα 21-239; test: competition ELISA vs IL-7

Nc1ncn([C@H]2C[C@H](O)[C@@H](CO)O2)c(=O)n1 [ADC, 5-Aza-2’-deoxycytidine]
IL-7Rα expression in ADC cells vs. NS cells (fold) [1]: about six

C[C@@H]1NC(=O)[C@@H]2CCCN2C(=O)[C@H](CCCNC(=N)N)NC(=O)[C@H](CCC(N)=O)NC(=O)[C@@H]2CCCN2C(=O)[C@H](Cc2c[nH]cn2)NC(=O)[C@@H]2CCCN2C(=O)[C@@H](NC(=O)COCCOCCNC(=O)CCCC[C@@H]2SC[C@@H]3NC(=O)N[C@@H]32)CSSC[C@@H](C(N)=O)NC1=O [Peptide P722] ({Biotin-AEEA}-CPHPQRPAC-NH2; disulfide 1-9; C-terminus assumed)
Relative affinity for IL-7Rα and FN, peptides (IL-7Rα): lost its affinity against IL-7Rα, displaying equivalent binding to FN

CC[C@H](C)[C@@H]1NC(=O)[C@H](CCCCN)NC(=O)[C@@H](NC(=O)COCCOCCNC(=O)CCCC[C@@H]2SC[C@@H]3NC(=O)N[C@@H]32)CSSC[C@@H](C(N)=O)NC(=O)[C@@H]2CCCN2C(=O)[C@H](CCSC)NC(=O)[C@H](CO)NC(=O)[C@H](CCCCN)NC(=O)[C@H](CCSC)NC1=O [Peptide P725] ({Biotin-AEEA}-CKIMKSMPC-NH2; disulfide 1-9; C-terminus assumed)
Co-localization with IL-7Rα ([2]; biotinylated P258 (0.04 μM) or P725 (5 μM)): co-localizes with peptides
Decrease of anti-IL-7Rα monoclonal antibody staining intensity ([2]; biotinylated P725 (5 μM), overnight 4 °C): 57%
Inhibition of IL-7-induced STAT5 activation ([3]; P725 1 mM or antibody 10 µg/mL pre-incubated 30 min, then IL-7 6 ng/mL 48 h, ADC-stimulated Jurkat cells): 82%
Prevention of IL-7 binding and STAT-5 activation ([3]; P725 1 mM or antibody 10 µg/mL pre-incubated 30 min, then IL-7 6 ng/mL 48 h, p < 0.01): prevented IL-7 binding and STAT-5 activation
Lysosome content after treatment ([4]; with IL-7, P725 or anti-IL-7Rα antibody, p < 0.05): significantly diminished

C[C@@H]1NC(=O)[C@@H](NC(=O)COCCOCCNC(=O)CCCC[C@@H]2SC[C@@H]3NC(=O)N[C@@H]32)CSSC[C@@H](C(N)=O)NC(=O)[C@H](Cc2c[nH]cn2)NC(=O)[C@@H]2CCCN2C(=O)[C@@H]2CCCN2C(=O)[C@H](CS)NC(=O)[C@H](C)NC(=O)[C@H](CO)NC1=O [Peptide P726] ({Biotin-AEEA}-CASACPPHC-NH2; disulfide 1-9; C-terminus assumed)
Relative affinity for IL-7Rα and FN, peptides (IL-7Rα): highest specific binding to IL-7Rα

ASACPPH-NH2 [Peptide P258]
Kd (FN): 1800 nM

IL-7 (from UniProt P13232)
Kd [5]: 0.2 nM

IL-7: human recombinant IL-7 (R&D Systems; eBioscience)
Increase in phospho-STAT-5 ([3]; IL-7 6 ng/mL, 48 h, vs. ADC-treated controls): 424%
Increase in lysosome content ([4]; IL-7 vs. ADC-treated controls): 398%
Kd (high-affinity IL-7R): 0.2 nM
Kd (low-affinity IL-7R): 10 nM

B1: P258 (peptide)
chain: ASACPPH
modifications: also: biotin-AEEA attached, end not given here
Kd (IL-7Rα 21-239 [6]): 600 nM

B2: P725 (peptide)
chain: CKIMKSMPC
modifications: disulfide 1-9 (inferred); also: AEEA attached, end not given here
IC50 (IL-7Rα 21-239 [7]): 16.4 µM

B3: P725 (peptide)
chain: CKIMKSMPC
modifications: disulfide 1-9 (inferred); also: biotin-AEEA attached, end not given here
Kd (IL-7Rα 21-239 [6]): 1100 nM

B4: USPIO-P258 (peptide)
chain: ASACPPH-NH2
modifications: also: AEEA attached, end not given here, conjugated to PEGylated USPIO
Kd (IL-7Rα 21-239 [6]): 4900 nM
IC50 (IL-7Rα 21-239 [7]): 6.6 µM
